This note sets out measurements from patent publication US11865098B1, “Methods and compositions for treating excessive sleepiness” (Axsome Malta Ltd., priority 2017, dated 2024).

Holding throughout (assay type): in vivo, human
Series [1] relates to adult patients with OSA and ES. Briefly: PGI-C, 12-week placebo-controlled parallel study in OSA. To be noted: 37.5, 75, 150, 300 mg; week 12; listed as APC. How it is done:
(§1) The study was a 12-week, double-blind, placebo-controlled, parallel design study as described in greater detail in Example 1 (Schweitzer et al., Sleep 40(Abstract Supplement):A237. Abstract 0641 (2017)). Patients were randomized (1:1:2:2:2) to APC 37.5, 75, 150, 300 mg, or placebo for 12 weeks, and were stratified by adherence or non-adherence with primary OSA therapy (adherent definition was use for ≥4 hours per night on >70% of nights). Two patient-reported measures were included as secondary efficacy outcomes to evaluate the effects of APC on functional status and work productivity and activity impairment at baseline and weeks 1, 4, 8, and 12. The Functional Outcomes of Sleep questionnaire short version (FOSQ-10) (Chasens et al., Sleep 32(7):915 (2009)) evaluated the effects of ES on functioning. The Work Productivity and Activity Impairment questionnaire for Specific Health Problems (WPAI:SHP) (Reilly et al., Pharmacoeconomics 4(5):353 (1993); Reilly, Work Productivity and Activity Impairment Questionnaire: Specific Health Problem V2.0 (WPAI: SHP). www.reillyassociates.net/WPAI_SHP) evaluated work productivity impairment among employed patients and overall activity impairment outside of work among all patients for the past 7 days. […]

Series [2] concerns adults with OSA and excessive sleepiness. Briefly: Safety and tolerability (TEAEs), phase 3 randomized withdrawal study in OSA. How it is done: The study was a double-blind, placebo-controlled, enriched, randomized withdrawal design (FIG. 1). In the Titration Phase (weeks 1-2), patients started on a once-daily dose of APC 75 mg and could be titrated up or down every 3 days to reach a maximum tolerated dose of APC 75, 150, or 300 mg. In the Stable-Dose Phase (weeks 3-4), patients continued to receive the dose that they were titrated to in the Titration Phase for 2 weeks. In the Double-Blind Withdrawal Phase (weeks 5-6), patients who reported “much” or “very much” improvement on the Patient Global Impression of Change (PGI-C) scale (Guy W. ECDEU assessment manual for psychopharmacology, revised. US Department of Health, Education, and Welfare publication (ADM 76-338). Rockville, MD: National Institute of Mental Health; 1976), and who had improved on the Maintenance of Wakefulness Test (MWT) and Epworth Sleepiness Scale (ESS) (Johns, Sleep 14(6):540 (1991)) at week 4 were randomized 1:1 to receive the same current dose of JZP-110 or placebo for 2 weeks.
MWT and ESS data were analyzed using a mixed-effect model repeated measures (MMRM); PGI-C and CGI-C were evaluated using a chi-square test. […] Safety and tolerability were evaluated based on treatment-emergent adverse events (TEAEs), vital signs, and laboratory values.

Series [3] has as its system adult patients with OSA and ES. In words: WPAI:SHP work productivity and activity impairment, 12-week parallel study in OSA. The following applies: 150 and 300 mg; week 12. The method, then:
as §1

Setting [4] is: Randomized Withdrawal Phase, all JZP-110 doses (n = 62).
The mark [5] stands for this setting: Stable-Dose Phase, all JZP-110 doses (n = 157).

Take `NC(=O)OC[C@H](N)Cc1ccccc1` [JZP-110, (R)-2-amino-3-phenylpropyl carbamate]: the “Key secondary endpoint, PGI-C” value in series [1] is reported as “met at all doses except for APC 37.5 mg”. Also, in series [2] (setting [4]), the “Any TEAE, incidence” value is recorded as “ρ 18 (29.0) n (%)”; the “Aphthous stomatitis, incidence” value is recorded as “ρ 1 (1.6) n (%)”; the “Cough, incidence” value is on record as “ρ 1 (1.6) n (%)”; the “Nasopharyngitis, incidence” value is “ρ 3 (4.8) n (%)”. In series [2] (setting [4]), the “Serious TEAEs, incidence” value is “ρ 0 n (%)”; the “TEAEs leading to withdrawal, incidence” value was “ρ 0 n (%)”; the “Upper respiratory tract infection, incidence” value was “ρ 1 (1.6) n (%)”. Moreover, in series [2] (setting [5]), the “Diarrhea, incidence” value is “ρ 0 n”; the “Dyspepsia, incidence” value is “ρ 0 n”; the “Serious TEAE, incidence” value is “ρ 0 n”; the “TEAE leading to withdrawal, incidence” value is “ρ 0 n”. Besides, the “Any TEAE, incidence” value in series [2] (Stable-Dose Phase, all JZP-110 doses (n = 157), listed as APC) stood at 10.2%. The “Serious TEAE, incidence” value in series [2] (Titration Phase, all JZP-110 doses (n = 174)) was “ρ 0 n”. Also, in series [2] (Titration Phase, all JZP-110 doses (n = 174), listed as APC), the “Any TEAE, incidence” value was 48.9%. Further, the “Rebound hypersomnia or withdrawal effects after abrupt discontinuation” value in series [2] (placebo group in the Randomized Withdrawal Phase) was “no evidence of rebound hypersomnia or withdrawal effects”. Moreover, the “Serious TEAEs in the study” value in series [2] (whole study) is recorded as “no serious TEAEs”. For the same molecule, in series [3], the “WPAI:SHP presenteeism, overall work impairment and activity impairment compared to placebo” value is “significantly decreased lower presenteeism, overall work impairment, and activity impairment”.
